Test results as given in publication PMC3898987 (Bioorganic & Medicinal Chemistry, 2013).
Numbering of substitutions follows the chain as printed.

How the values were obtained:
[1] = molecular target: T1, 5-HT3AB receptor, 5-HT3B subunit E170A (Homo sapiens, UniProt P46098); experiment: biochemical; assay type: binding; details: [3H]-palonosetron saturation, 5-HT3AB with 5-HT3B E170A, 4 °C, 24 h
T1 construct: variant as stated: E170A
T1 sequence (P46098 24-478): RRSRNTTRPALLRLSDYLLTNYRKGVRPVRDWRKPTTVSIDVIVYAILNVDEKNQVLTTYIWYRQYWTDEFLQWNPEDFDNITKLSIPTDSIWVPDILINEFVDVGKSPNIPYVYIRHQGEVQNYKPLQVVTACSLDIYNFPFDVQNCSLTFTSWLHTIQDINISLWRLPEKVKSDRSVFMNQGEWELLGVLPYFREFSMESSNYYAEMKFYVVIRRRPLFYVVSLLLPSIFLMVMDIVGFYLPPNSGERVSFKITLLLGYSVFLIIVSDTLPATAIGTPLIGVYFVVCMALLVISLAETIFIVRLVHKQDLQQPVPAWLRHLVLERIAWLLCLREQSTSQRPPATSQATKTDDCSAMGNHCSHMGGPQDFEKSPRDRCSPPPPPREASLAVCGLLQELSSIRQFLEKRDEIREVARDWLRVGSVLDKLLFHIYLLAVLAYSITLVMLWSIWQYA
T1 sequence (O95264 22-441 partner): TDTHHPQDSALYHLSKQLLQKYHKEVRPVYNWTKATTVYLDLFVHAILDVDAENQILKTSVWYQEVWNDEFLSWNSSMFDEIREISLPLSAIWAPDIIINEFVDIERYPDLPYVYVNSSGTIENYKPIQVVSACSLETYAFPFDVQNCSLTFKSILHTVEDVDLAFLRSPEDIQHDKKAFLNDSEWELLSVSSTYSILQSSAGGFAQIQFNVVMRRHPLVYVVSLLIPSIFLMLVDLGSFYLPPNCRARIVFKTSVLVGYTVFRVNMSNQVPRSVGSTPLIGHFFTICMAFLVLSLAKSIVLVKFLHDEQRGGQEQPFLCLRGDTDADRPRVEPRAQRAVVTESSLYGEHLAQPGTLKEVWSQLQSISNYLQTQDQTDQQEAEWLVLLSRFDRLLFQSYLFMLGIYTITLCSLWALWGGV
Method: (§1) Human embryonic kidney (HEK) 293 cells were cultured on 90 mm tissue culture plates at 37 °C and 7% CO2 in a humidified atmosphere. They were grown in DMEM:F12 (Dulbecco’s Modified Eagle’s Medium/Nutrient Mix F12 (1:1)) with GlutaMAX I™ containing 10% fetal calf serum and passaged when confluent. For radioligand binding studies, cells in 90 mm dishes were transfected at 60–70% confluency using polyethyleneimine and incubated for 3–4 days before use. For FlexStation assays, transfected cells were plated on 96-well plates and incubated 1–2 days before assay. […]
(§2) Eight-point binding assays were performed to produce saturation binding curves. […] Radioactive counts were measured using a Beckman LS6000SC liquid scintillation counter (Fullerton, California, USA).
(§3) Data were analyzed by iterative curve fitting using GraphPad Prism v5 (San Diego, CA) according to the following equation: B=Bmax[L]^n/kdn+[L]^n where B is the amount of bound radioligand, Bmax is the maximum specific binding at equilibrium, [L] is the concentration of radioligand, Kd is the equilibrium dissociation constant of the radioligand, and n is the Hill coefficient.

5-HT3A receptor F130A = molecular target: T2, 5-HT3A receptor F130A (Homo sapiens, UniProt P46098, F125A); experiment: radioligand saturation binding, transfected HEK293 membranes; details: [3H]-palonosetron saturation, 5-HT3A F130A, 4 °C, 24 h
T2 sequence (P46098 24-478 F125A): T1 sequence (P46098 24-478) with F102A
Method: as §1, §2, §3

[2] = molecular target: T3, 5-HT3AB receptor, 5-HT3B subunit W90C (Homo sapiens, UniProt O95264+P46098, W83C); experiment: as above; details: [3H]-palonosetron saturation, 5-HT3AB with 5-HT3B W90C, 4 °C, 24 h
T3 sequence (P46098 24-478): T1 sequence (P46098 24-478)
T3 sequence (O95264 22-441 W83C): T1 sequence (O95264 22-441 partner) with W62C
Method: as §1, §2, §3

[3] = molecular target: T4, 5-HT3AB receptor, 5-HT3B subunit Y143A (Homo sapiens, UniProt O95264+P46098, Y136A); experiment: FlexStation membrane potential dye functional assay, HEK293 cells; details: 5-HT concentration-response, 5-HT3AB with 5-HT3B Y143A
T4 sequence (P46098 24-478): T1 sequence (P46098 24-478)
T4 sequence (O95264 22-441 Y136A): T1 sequence (O95264 22-441 partner) with Y115A
Method: For FlexStation assays, transfected cells were plated on 96-well plates and incubated 1–2 days before assay.
Fluorometric studies were undertaken using a FlexStation® (Molecular Devices, Sunnyvale, CA, USA) as previously described.[11]
Fluorescence was measured every 2 s for 200 s. […] Concentration–response and inhibition curves were obtained for each mutant, and the fluorescence values were normalized to the maximal response.

SMILES	Kd [1]	Kd (5-HT3A receptor F130A)	Kd [2]	Hill Coefficient [3]
O=C1c2cccc3c2[C@H](CCC3)CN1[C@@H]1CN2CCC1CC2 [Palonosetron]	0.21 ± 0.03 nM	0.67 ± 0.12 nM	0.34 ± 0.06 nM	–
NCCc1c[nH]c2ccc(O)cc12 [5-HT, serotonin]	–	–	–	1.3 ± 0.2
